From publication PMC7413254 (Nature Communications, 2020)
Values joined by “and” are separate entries in the source; they are usually repeats but may differ in a detail not shown here. Identical values can stand only once. Like-named read-outs stand apart in the source and are kept apart here.

What was measured:
[1] = tested on: non-expressing oocytes; assay: cells; type: cell-based, Xenopus laevis; settings: for Uptake of [3H]CQ (% non-expressing oocyte control), cis-inhibition: non-expressing oocytes, total [3H]CQ transport, normalised to the oocyte type control
Excerpt: (§1) The orientation of PfCRT in the parasite’s DV membrane, and also in the oocyte plasma membrane, is such that its N- and C-termini extend into the cytosol. The oocytes were suspended in a reaction buffer adjusted to pH 5.5 to mimic the pH of the DV lumen[1],[2]. In this scenario, the transport of a substrate via PfCRT from the acidic extracellular solution into the oocyte cytosol[15] is analogous to the parasite’s PfCRT-mediated efflux of a substrate from the acidic DV and into the cytosol. Unless specified otherwise, this is the direction in which substrate transport was measured in the oocyte assays.
(§2) Unless specified otherwise, the transport assays were conducted over 1.5 h at 27.5 °C and the reaction buffer was ND96 (96 mM NaCl, 2 mM KCl, 1 mM MgCl2, 1.8 mM CaCl2, 10 mM MES and 10 mM Tris-base) at pH 5.5.
(§3) Ten oocytes were washed twice with the relevant ND96 buffer. […] The assay was terminated by removing the reaction buffer and washing the oocytes with ice-cold ND96 buffer. The oocytes were lysed in 10% (w/v) sodium dodecyl sulfate (SDS) and the radioactivity accumulated within each oocyte was measured with a MicroBeta^2 microplate liquid scintillation analyser (PerkinElmer).
(§4) At least four independent experiments were performed (on different days and using oocytes from different frogs), and within each experiment measurements were made from ten oocytes per treatment.

[2] = target: T1, PfCRT^3D7 (Plasmodium falciparum, UniProt Q8IBZ9); assay: cell-based; type: cell-based; settings: for Uptake of [3H]CQ (% PfCRT3D7 control), cis-inhibition: PfCRT3D7 oocytes, total [3H]CQ transport, normalised to the oocyte type control
Excerpt: as §1, §2, §3, §4

[3] = target: T2, PfCRT^Dd2 (Plasmodium falciparum, UniProt Q9N623, A220S/I356T/K76T/M74I/N326S/N75E/Q271E/R371I); assay: [3H]CQ uptake into Xenopus oocytes, cis-inhibition by unlabelled solute; type: cell-based; settings: PfCRTDd2 oocytes, background [3H]CQ accumulation subtracted, normalised to oocyte type control
Outline: (§5)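 Inward transport into oocyte cytosol from pH 5.5 medium models PfCRT efflux from the acidic digestive vacuole. Incubation 1.5 h, 27.5 °C; termination by ice-cold washes; lysate radioactivity counted.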

[4] = target: T3, PfCRT^Ecu1110 (Plasmodium falciparum, UniProt Q9N623, A220S/I356L/K76T/N326D); assay: as above; type: cell-based; settings: for Uptake of [3H]CQ (% PfCRTEcu1110 control), cis-inhibition / PfCRT-mediated [3H]CQ transport, cis-inhibition (% PfCRTEcu1110 control): PfCRTEcu1110 oocytes; for Uptake of [3H]CQ (% PfCRTEcu1110 control), cis-inhibition: total [3H]CQ transport, normalised to the oocyte type control; for PfCRT-mediated [3H]CQ transport, cis-inhibition (% PfCRTEcu1110 control): background [3H]CQ accumulation subtracted, normalised to oocyte type control
Outline: as §5

[5] = tested on: non-expressing oocytes; type: cell-based, Xenopus laevis; settings: for Uptake of [3H]CQ (% non-expressing oocyte control), trans-stimulation: non-expressing oocytes, total [3H]CQ transport, normalised to the oocyte type control
Outline: (§6)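 Oocytes (ten per treatment, ≥4 independent frogs/days) were preloaded by injecting VF-6 in 25 nL ND96 at pH 5.0, 5.5, 6.0 or 7.0, or Na^+-free choline buffer, then uptake run 1.5 h, 27.5 °C, ND96 pH 5.5 by default. Internal concentrations assumed ~400 nL oocyte volume.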

[6] = target: T1, PfCRT^3D7; assay: cell-based; type: cell-based; settings: for Uptake of [3H]CQ (% PfCRT3D7 control), trans-stimulation / PfCRT-mediated [3H]CQ transport, trans-stimulation (% PfCRT3D7 control): PfCRT3D7 oocytes; for Uptake of [3H]CQ (% PfCRT3D7 control), trans-stimulation: total [3H]CQ transport, normalised to the oocyte type control; for PfCRT-mediated [3H]CQ transport, trans-stimulation (% PfCRT3D7 control): normalised to oocyte type control
Outline: as §6

[7] = target: T2, PfCRT^Dd2; assay: cell-based; type: cell-based; settings: for Uptake of [3H]CQ (% PfCRTDd2 control), trans-stimulation / PfCRT-mediated [3H]CQ transport, trans-stimulation (% PfCRTDd2 control): PfCRTDd2 oocytes; for Uptake of [3H]CQ (% PfCRTDd2 control), trans-stimulation: total [3H]CQ transport, normalised to the oocyte type control; for PfCRT-mediated [3H]CQ transport, trans-stimulation (% PfCRTDd2 control): normalised to oocyte type control; for [3H]CQ transport (% PfCRTDd2 control), trans-stimulation, PfCRTDd2: PfCRT-mediated component (background subtracted), mean ± SEM, SEM
Outline: as §6

[8] = target: T3, PfCRT^Ecu1110; assay: cell-based; type: cell-based; settings: for Uptake of [3H]CQ (% PfCRTEcu1110 control), trans-stimulation / PfCRT-mediated [3H]CQ transport, trans-stimulation (% PfCRTEcu1110 control): PfCRTEcu1110 oocytes; for Uptake of [3H]CQ (% PfCRTEcu1110 control), trans-stimulation: total [3H]CQ transport, normalised to the oocyte type control; for PfCRT-mediated [3H]CQ transport, trans-stimulation (% PfCRTEcu1110 control): normalised to oocyte type control; for [3H]CQ transport (% PfCRTDd2 control), trans-stimulation, PfCRTEcu1110: PfCRT-mediated component (background subtracted), sheet title says normalised to PfCRTDd2 control, mean ± SEM, SEM
Outline: as §6

[9] = target: T4, PfNT1 (Plasmodium falciparum, UniProt Q8IDM6); assay: cell-based; type: cell-based; settings: for Uptake of [3H]CQ (% PfNT1 control), trans-stimulation: PfNT1 oocytes, total [3H]CQ transport, normalised to the oocyte type control
T4 construct: expressed in transfected cells; host or cells: Xenopus laevis oocytes (stage V-VI), cRNA-injected
Outline: as §6

[10] = [test solute]i = 45 mM (30 mM for some solutes due to solubility)
[11] = [test solute]i = 5 mM (intracellular)
[12] = [test solute]i = 45 mM (intracellular; 30 mM for some solutes due to solubility)
[13] = [test solute]i = 5 mM (injected)

T2 sequence (Q9N623 whole entry A220S/I356T/K76T/M74I/N326S/N75E/Q271E/R371I): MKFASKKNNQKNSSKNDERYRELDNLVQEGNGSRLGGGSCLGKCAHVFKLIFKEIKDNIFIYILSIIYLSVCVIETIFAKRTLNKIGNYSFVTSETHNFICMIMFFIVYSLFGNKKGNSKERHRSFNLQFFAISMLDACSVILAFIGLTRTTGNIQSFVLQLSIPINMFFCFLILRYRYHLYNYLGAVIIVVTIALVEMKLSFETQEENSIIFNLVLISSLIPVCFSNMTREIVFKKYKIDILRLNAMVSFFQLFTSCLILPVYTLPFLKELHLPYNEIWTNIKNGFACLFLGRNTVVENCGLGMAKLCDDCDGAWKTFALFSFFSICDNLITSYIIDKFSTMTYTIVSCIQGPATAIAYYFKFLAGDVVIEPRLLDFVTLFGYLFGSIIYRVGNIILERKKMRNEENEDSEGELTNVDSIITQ
T4 sequence (Q8IDM6 whole entry): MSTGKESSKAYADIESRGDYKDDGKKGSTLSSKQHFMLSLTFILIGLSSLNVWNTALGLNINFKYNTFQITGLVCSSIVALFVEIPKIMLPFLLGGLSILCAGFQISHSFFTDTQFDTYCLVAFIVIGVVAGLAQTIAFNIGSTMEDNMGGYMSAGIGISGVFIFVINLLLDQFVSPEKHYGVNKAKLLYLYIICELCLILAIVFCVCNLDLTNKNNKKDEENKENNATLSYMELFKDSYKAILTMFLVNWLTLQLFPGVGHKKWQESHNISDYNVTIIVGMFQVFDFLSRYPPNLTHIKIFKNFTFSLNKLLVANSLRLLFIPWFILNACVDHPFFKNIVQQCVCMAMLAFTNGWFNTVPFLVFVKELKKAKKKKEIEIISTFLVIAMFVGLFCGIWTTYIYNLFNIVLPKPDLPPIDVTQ
T3 sequence (Q9N623 whole entry A220S/I356L/K76T/N326D): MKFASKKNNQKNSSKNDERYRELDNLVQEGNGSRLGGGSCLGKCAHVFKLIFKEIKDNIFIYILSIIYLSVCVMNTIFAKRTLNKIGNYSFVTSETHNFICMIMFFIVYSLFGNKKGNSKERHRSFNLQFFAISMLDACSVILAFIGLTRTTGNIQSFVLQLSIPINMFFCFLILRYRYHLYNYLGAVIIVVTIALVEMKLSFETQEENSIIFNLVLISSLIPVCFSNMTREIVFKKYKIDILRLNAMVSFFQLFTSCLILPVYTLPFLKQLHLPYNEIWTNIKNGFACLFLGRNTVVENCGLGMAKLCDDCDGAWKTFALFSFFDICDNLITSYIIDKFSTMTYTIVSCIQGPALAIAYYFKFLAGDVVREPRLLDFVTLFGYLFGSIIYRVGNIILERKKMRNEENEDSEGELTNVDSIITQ
T1 sequence (Q8IBZ9 59-398): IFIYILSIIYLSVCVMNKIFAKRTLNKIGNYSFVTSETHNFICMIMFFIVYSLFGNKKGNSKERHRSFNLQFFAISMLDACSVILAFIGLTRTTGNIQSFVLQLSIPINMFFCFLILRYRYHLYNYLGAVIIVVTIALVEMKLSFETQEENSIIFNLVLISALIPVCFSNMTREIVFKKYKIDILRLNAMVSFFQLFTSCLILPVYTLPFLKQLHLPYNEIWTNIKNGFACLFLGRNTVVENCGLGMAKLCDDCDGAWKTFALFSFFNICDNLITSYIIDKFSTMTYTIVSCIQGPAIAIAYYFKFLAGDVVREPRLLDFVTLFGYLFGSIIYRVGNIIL

## PPVQ [PQ-4]
[1]; [test solute] = 1 mM
  Uptake of [3H]CQ (% non-expressing oocyte control), cis-inhibition: 99 ± 5.3 % non-expressing oocyte control
[1]; [test solute] = 2 mM
  Uptake of [3H]CQ (% non-expressing oocyte control), cis-inhibition: 100 ± 3.7 % non-expressing oocyte control
[2]; [test solute] = 0.5 mM
  Uptake of [3H]CQ (% PfCRT3D7 control), cis-inhibition: 99 ± 3.9 % PfCRT3D7 control
[2]; [test solute] = 1 mM
  Uptake of [3H]CQ (% PfCRT3D7 control), cis-inhibition: 99 ± 6.3 % PfCRT3D7 control
[2]; [test solute] = 2 mM
  Uptake of [3H]CQ (% PfCRT3D7 control), cis-inhibition: 99 ± 5.3 % PfCRT3D7 control
[3]; [test solute] = 0.5 mM
  PfCRT-mediated [3H]CQ transport, cis-inhibition (% PfCRTDd2 control): 68 ± 3.7 % PfCRTDd2 control
[3]; [test solute] = 1 mM
  PfCRT-mediated [3H]CQ transport, cis-inhibition (% PfCRTDd2 control): 59 ± 2.1 % PfCRTDd2 control
[3]; [test solute] = 2 mM
  PfCRT-mediated [3H]CQ transport, cis-inhibition (% PfCRTDd2 control): 37 ± 2.0 % PfCRTDd2 control
[4]; [test solute] = 0.5 mM
  Uptake of [3H]CQ (% PfCRTEcu1110 control), cis-inhibition: 67 ± 2.1 % PfCRTEcu1110 control
  PfCRT-mediated [3H]CQ transport, cis-inhibition (% PfCRTEcu1110 control): 61 ± 3.1 % PfCRTEcu1110 control
[4]; [test solute] = 1 mM
  Uptake of [3H]CQ (% PfCRTEcu1110 control), cis-inhibition: 56 ± 2.8 % PfCRTEcu1110 control
  PfCRT-mediated [3H]CQ transport, cis-inhibition (% PfCRTEcu1110 control): 51 ± 1.3 % PfCRTEcu1110 control
[4]; [test solute] = 2 mM
  Uptake of [3H]CQ (% PfCRTEcu1110 control), cis-inhibition: 48 ± 4.8 % PfCRTEcu1110 control
  PfCRT-mediated [3H]CQ transport, cis-inhibition (% PfCRTEcu1110 control): 41 ± 3.2 % PfCRTEcu1110 control
[4]; cis-inhibition, [test solute] = 2 mM, PfCRT-mediated component (background subtracted), sheet title says normalised to PfCRTDd2 control, mean ± SEM, SEM
  [3H]CQ transport (% PfCRTEcu1110 control), cis-inhibition, PfCRTEcu1110: 13 ± 0.6 % PfCRTEcu1110 control
[5]; [test solute]i = 5 mM
  Uptake of [3H]CQ (% non-expressing oocyte control), trans-stimulation: 99 ± 3.4 % non-expressing oocyte control
[5]; [10]
  Uptake of [3H]CQ (% non-expressing oocyte control), trans-stimulation: 100 ± 2.7 % non-expressing oocyte control
[6]; [test solute]i = 5 mM
  Uptake of [3H]CQ (% PfCRT3D7 control), trans-stimulation: 134 ± 2.5 % PfCRT3D7 control
[6]; [10]
  Uptake of [3H]CQ (% PfCRT3D7 control), trans-stimulation: 165 ± 4.2 % PfCRT3D7 control
[6]; [11]
  PfCRT-mediated [3H]CQ transport, trans-stimulation (% PfCRT3D7 control): 129 ± 2.1 % PfCRT3D7 control
[6]; [12]
  PfCRT-mediated [3H]CQ transport, trans-stimulation (% PfCRT3D7 control): 159 ± 5.2 % PfCRT3D7 control
[7]; [test solute]i = 5 mM
  Uptake of [3H]CQ (% PfCRTDd2 control), trans-stimulation: 100 ± 3.2 % PfCRTDd2 control
[7]; [10]
  Uptake of [3H]CQ (% PfCRTDd2 control), trans-stimulation: 115 ± 2.9 % PfCRTDd2 control
  [3H]CQ transport (% PfCRTDd2 control), trans-stimulation, PfCRTDd2: 110 ± 1.1 % PfCRTDd2 control
[7]; [11]
  PfCRT-mediated [3H]CQ transport, trans-stimulation (% PfCRTDd2 control): 98 ± 4.2 % PfCRTDd2 control
[7]; [12]
  PfCRT-mediated [3H]CQ transport, trans-stimulation (% PfCRTDd2 control): 110 ± 1.1 % PfCRTDd2 control
[7]; [13]
  [3H]CQ transport (% PfCRTDd2 control), trans-stimulation, PfCRTDd2: 98 ± 4.2 % PfCRTDd2 control
[8]; [test solute]i = 5 mM
  Uptake of [3H]CQ (% PfCRTEcu1110 control), trans-stimulation: 124 ± 2.9 % PfCRTEcu1110 control
[8]; [10]
  Uptake of [3H]CQ (% PfCRTEcu1110 control), trans-stimulation: 138 ± 3.2 % PfCRTEcu1110 control
  [3H]CQ transport (% PfCRTDd2 control), trans-stimulation, PfCRTEcu1110: 40 ± 1.3 % PfCRTEcu1110 control
[8]; [11]
  PfCRT-mediated [3H]CQ transport, trans-stimulation (% PfCRTEcu1110 control): 120 ± 3.2 % PfCRTEcu1110 control
[8]; [12]
  PfCRT-mediated [3H]CQ transport, trans-stimulation (% PfCRTEcu1110 control): 132 ± 1.1 % PfCRTEcu1110 control
[8]; [13]
  [3H]CQ transport (% PfCRTDd2 control), trans-stimulation, PfCRTEcu1110: 36 ± 1.3 % PfCRTEcu1110 control
[9]; [test solute]i = 5 mM
  Uptake of [3H]CQ (% PfNT1 control), trans-stimulation: 100 ± 2.5 % PfNT1 control
[9]; [10]
  Uptake of [3H]CQ (% PfNT1 control), trans-stimulation: 99 ± 3.2 % PfNT1 control

## O=CO [Formate]
[1]
  Cis-inhibition data: total [3H]CQ transport, normalised to the oocyte type control: 100 ± 3.5 and 100 ± 1.8
  Total [3H]CQ transport, cis-inhibition by solute: 2.8 ± 0.03 and 3.2 ± 0.08 and 2.5 ± 0.04
[2]
  Cis-inhibition data: total [3H]CQ transport, normalised to the oocyte type control: 101 ± 7.3 and 99 ± 3.8 and 100 ± 4.4
  Total [3H]CQ transport, cis-inhibition by solute: 2.4 ± 0.06 and 3.5 ± 0.07 and 3.3 ± 0.07
[5]
  Total [3H]CQ transport, trans-stimulation by injected solute: 2.5 ± 0.09 and 3.2 ± 0.08
  Trans-stimulation data: total [3H]CQ transport, normalised to the oocyte type control: 101 ± 3.9 and 99 ± 3.5
[6]
  PfCRT-mediated [3H]CQ transport, trans-stimulation by injected solute, PfCRT3D7: 0.8 ± 0.01 and 0.8 ± 0.03
  Total [3H]CQ transport, trans-stimulation by injected solute: 3.8 ± 0.01 and 3.8 ± 0.03
  Trans-stimulation data: PfCRT-mediated [3H]CQ transport: 99 ± 3.7 and 99 ± 3.8
  Trans-stimulation data: total [3H]CQ transport, normalised to the oocyte type control: 101 ± 2.9 and 101 ± 2.8
[9]
  Total [3H]CQ transport, trans-stimulation by injected solute: 3.1 ± 0.08 and 2.3 ± 0.06
  Trans-stimulation data: total [3H]CQ transport, normalised to the oocyte type control: 101 ± 3.6 and 100 ± 24

## O=C(O)CCC(=O)O [Succinate]
[1]
  Cis-inhibition data: total [3H]CQ transport, normalised to the oocyte type control: 101 ± 4.7 and 101 ± 5.3 and 100 ± 5.3
  Total [3H]CQ transport, cis-inhibition by solute: 2.4 ± 0.06 and 2.8 ± 0.03 and 2.2 ± 0.06
[2]
  Cis-inhibition data: total [3H]CQ transport, normalised to the oocyte type control: 100 ± 9.7 and 100 ± 3.8 and 99 ± 3.7
  Total [3H]CQ transport, cis-inhibition by solute: 4.2 ± 0.03 and 3.6 ± 0.06 and 3.9 ± 0.1
[5]
  Total [3H]CQ transport, trans-stimulation by injected solute: 3.1 ± 0.03 and 2.2 ± 0.05
  Trans-stimulation data: total [3H]CQ transport, normalised to the oocyte type control: 100 ± 3.7 and 99 ± 3.3
[6]
  PfCRT-mediated [3H]CQ transport, trans-stimulation by injected solute, PfCRT3D7: 0.8 ± 0.04 and 0.6 ± 0.02
  Total [3H]CQ transport, trans-stimulation by injected solute: 3.8 ± 0.1 and 3.6 ± 0.03
  Trans-stimulation data: PfCRT-mediated [3H]CQ transport: 99 ± 3.9 and 96 ± 4.0
  Trans-stimulation data: total [3H]CQ transport, normalised to the oocyte type control: 101 ± 2.7 and 98 ± 3.7
[9]
  Total [3H]CQ transport, trans-stimulation by injected solute: 2.6 ± 0.04 and 3.3 ± 0.08
  Trans-stimulation data: total [3H]CQ transport, normalised to the oocyte type control: 101 ± 3.7 and 98 ± 3.0
